Results from patent publication US20020183313A1, “1,4-benzodiazepinones and their uses as CCK antagonists” (Fujisawa Pharmaceutical Co., Ltd., priority 1996, published 2002).

Experiments:
CCK-B [1] = target: T1, CCK-B (UniProt H0VZC5); assay: Receptor binding studies, CCK-B
T1 construct: IC50 (nM) for CCK-B
T1 sequence (H0VZC5 1-426): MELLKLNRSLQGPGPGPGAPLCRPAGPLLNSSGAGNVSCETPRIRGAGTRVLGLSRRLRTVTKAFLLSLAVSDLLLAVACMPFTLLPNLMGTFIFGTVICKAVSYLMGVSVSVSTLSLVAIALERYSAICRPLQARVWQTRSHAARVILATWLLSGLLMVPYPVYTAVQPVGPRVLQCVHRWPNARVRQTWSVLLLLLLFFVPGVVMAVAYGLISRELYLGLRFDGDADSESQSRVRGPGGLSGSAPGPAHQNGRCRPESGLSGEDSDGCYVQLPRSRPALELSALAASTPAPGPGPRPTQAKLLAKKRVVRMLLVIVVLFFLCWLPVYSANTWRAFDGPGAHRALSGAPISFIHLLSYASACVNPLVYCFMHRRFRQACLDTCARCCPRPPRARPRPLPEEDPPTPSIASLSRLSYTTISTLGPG
Protocol: (§1) Receptor binding studies and gastric emptying in mice
(§2) The tests were carried out in accordance with the method described at pages 571 to 572 in the following literature;
(§3) Harunobu Ito, Hajime Sogabe et al., The Journal of Pharmacology and Experimental Therapeutics, 571, No.2, Vol.268 (1994).

CCK-B [2] = assay: Receptor binding studies, CCK-B; details: ratio IC50 CCK-A / IC50 CCK-B
Protocol: as §1, §2, §3

mice = assay: Gastric emptying in mice; format: in vivo
Protocol: as §1, §2, §3

CCK-A = target: T2, CCK-A (UniProt P30551); assay: Receptor binding studies, CCK-A
T2 sequence (P30551 1-444): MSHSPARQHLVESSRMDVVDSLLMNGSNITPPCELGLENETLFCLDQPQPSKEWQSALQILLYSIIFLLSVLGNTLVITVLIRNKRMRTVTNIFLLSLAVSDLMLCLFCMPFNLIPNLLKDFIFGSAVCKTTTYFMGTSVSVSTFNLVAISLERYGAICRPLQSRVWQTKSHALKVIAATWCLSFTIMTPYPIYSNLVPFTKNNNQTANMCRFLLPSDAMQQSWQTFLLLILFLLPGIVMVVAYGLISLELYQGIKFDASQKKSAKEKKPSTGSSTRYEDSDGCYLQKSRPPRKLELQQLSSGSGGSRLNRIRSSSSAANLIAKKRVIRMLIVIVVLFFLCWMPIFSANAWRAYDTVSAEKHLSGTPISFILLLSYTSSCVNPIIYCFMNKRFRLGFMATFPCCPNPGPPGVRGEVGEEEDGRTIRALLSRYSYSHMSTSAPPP
Protocol: as §1, §2, §3

[3] = target: T3, guinea-pig cerebral cortical membranes (125I-CCK-8 binding) (Cavia porcellus, UniProt H0VZC5); assay: [125I]CCK-8 binding to guinea-pig cerebral cortical membranes; details: test compound 1×10^−8 M; 50 pM 125I-CCK-8; 60 minutes at 37° C.
T3 construct: from tissue; host or cells: guinea-pig cerebral cortex membranes
T3 sequence (H0VZC5 1-426): T1 sequence (H0VZC5 1-426)
Protocol: [^125I]CCK-8 binding to guinea-pig cerebral cortical membranes
Guinea-pigs were killed by decapitation and bled to death. Cerebral cortex was removed, minced in a small quantity of 50 mM Tris-HCl buffer (pH 7.4), and homogenized in 20 vol. of the buffer by a glass-teflon homogenizer. The homogenate was centrifuged at 30000× g (16000 rpm) for 10 minutes. The pellet was then resuspended in the same buffer by a glass-teflon homogenizer and recentrifuged at 30000× g for 10 minutes. This procedure (washings) was repeated twice more. The final pellet (membrane) was suspended in incubation medium (see below) so as to obtain a final protein concentration of 4 mg/ml and frozen at −80° C. All manipulations were done at 0-4° C.
(ii) Receptor Binding Assay
The composition of incubation medium was as follows:
10 mM HEPES (pH 6.5), 5 mM MgCl2, 1 mM EGTA, 130 mM NaCI and 0.25 mg/ml bacitracin. Frozen membranes were thawed and aliquots (400 μg, protein) were incubated for 60 minutes under shaking at 37° C. in plastic tubes in 500 μL of incubation medium with 50 pM ^125I-CCK-8 in the presence or absence of test compound (1×10^−8 M). […] After washing the filter with 50 mM Tris-HCl (pH 7.4) buffer containing 0.1% BSA, the radioactivity of the filter was countered. […] The effect of the test compound was expressed as % inhibition of specific ′^125I-CCK-8 binding.

Compound	IC50 (CCK-B [1]) [nM]	selectivity A/B (CCK-B [2])	Gastric emptying ID50 (mice) [mg/kg]	IC50 (CCK-A) [nM]	melting point [°C]	Inhibition (%) of specific 125I-CCK-8 binding [3] [%]
CCC1=NC(NC(=O)Nc2cccc(C)c2)C(=O)N(CC(=O)C2CCCCC2)c2c(C)cccc21 (racemic) [(B), N-[(3RS)-1-cyclohexylcarbonylmethyl-2,3-dihydro-5-ethyl-9-methyl-2-oxo-1H-1,4-benzodiazepin-3-yl]-N′-(3-methylphenyl)urea]	1.6	0.56	0.4	0.9	161.2 to 164	–
Cc1cccc(NC(=O)NC2N=C(C3CC3)c3cccc(C)c3N(CC(=O)C3CCCCC3)C2=O)c1 (racemic) [(D), N-[(3RS)-1-cyclohexylcarbonylmethyl-5-cyclopropyl-2,3-dihydro-9-methyl-2-oxo-1H-1,4-benzodiazepin-3-yl]-N′-(3-methylphenyl)urea]	1.1	1.82	1.8	2	143.6 to 144.2	–
CC1=NC(NC(=O)Nc2cccc(C)c2)C(=O)N(CC(=O)C2CCCCC2)c2c(C)cccc21 (racemic) [Compound (A), N-[(3RS)-1-cyclohexylcarbonylmethyl-2,3-dihydro-5,9-dimethyl-2-oxo-1H-1,4-benzodiazepin-3-yl]-N′-(3-methylphenyl)urea]	3.7	0.30	0.4	1.1	179.2 to 180.9	–
CCC1=N[C@@H](NC(=O)Nc2cccc(C)c2)C(=O)N(CC(=O)C2CCCCC2)c2c(C)cccc21 [(C), N-[(3R)-1-cyclohexylcarbonylmethyl-5-ethyl-9-methyl-2-oxo-2,3-dihydro-1H-1,4-benzodiazepin-3-yl]-N′-(3-methylphenyl)urea]	1	0.30	0.23	0.3	–	–
CC(=O)c1sccc1CN1C(=O)C(NC(=O)Nc2cccc(C)c2)N=C(C(C)C)c2ccccc21 (racemic) [(2)]	–	–	–	–	–	97
Cc1cccc(NC(=O)NC2N=C(CCC(C)C)c3ccccc3N(Cc3ncccc3C)C2=O)c1 (racemic) [9(1), N-[(3RS)-2,3-dihydro-5-(3-methylbutyl)-1-(3-methylpyridin-2-yl)methyl-2-oxo-1H-1,4-benzodiazepin-3-yl]-N′-(3-methylphenyl)urea]	–	–	–	–	151 to 154	–
Cc1cccc(NC(=O)NC2N=C(C(C)C)c3ccccc3N(CC(=O)N3CC4CCC(CC4)C3)C2=O)c1 (racemic)	–	–	–	–	123 to 126	–
CC1=NC(NC(=O)Nc2cccc(C)c2)C(=O)N(CC(=O)N2CC3CCC(CC3)C2)c2ccccc21 (racemic)	–	–	–	–	150 to 153	–
Cc1cccc(NC(=O)NC2N=C(CO)c3cccc(C)c3N(CC(=O)N3CCCCCCC3)C2=O)c1 (racemic) [Example 71-2, N-[(3RS)-1-(Azacyclooctan-1-yl)carbonylmethyl-2,3-dihydro-5-hydroxymethyl-9-methyl-2-oxo-1H-1,4-benzodiazepin-3-yl]-N′-(3-methylphenyl)urea]	–	–	–	–	214.5 to 216	–
